# In PMC7232187, “High-Throughput Screening of the ReFRAME Library Identifies Potential Drug Repurposing Candidates for Trypanosoma cruzi” (Microorganisms, 2020):
# Like-named read-outs stand apart in the source and are kept apart here.
# Assays:
# CA-I/72 T. cruzi = test: Phenotypic high-content imaging assay, intracellular T. cruzi amastigotes in C2C12 host cells; format: cell-based, Trypanosoma cruzi; settings: for Selectivity Index (SI): SI = CC50 (C2C12) / EC50 (T. cruzi CA-I/72); for EC50: Trypanosoma cruzi, read-out: EC50 CA-I/72 T. cruzi
# Experimental: C2C12 mouse myoblasts (ATCC CRL-1772) and CA-I/72 T. cruzi (kindly donated by J. Dvorak, NIH) were cultured in Dulbecco’s Modified Eagle Medium (Invitrogen, Carlsbad, CA, USA), supplemented with 5% fetal bovine serum (Sigma Aldrich, St. Louis, MO, USA) and 1% penicillin-streptomycin (Invitrogen, Carlsbad, CA, USA) at 37 °C and 5% CO2 essentially as described [11]. Passaging of CA-I/72 T. cruzi was conducted weekly via co-culture with C2C12 host cells.
# Compounds from the ReFRAME library, benznidazole (Sigma Alderich, St. Louis, MO, USA) and DMSO (Sigma Alderich, St. Louis, MO, USA), were transferred to black 1536-well plates (Greiner Bio One, Kremsmünster, Austria) with clear bottoms using an Acoustic Transfer System (ATS) instrument (EDC Biosystems, Fremont, CA, USA). C2C12 cells were seeded at a density of 100 cells per well, and CA-I/72 T. cruzi parasites were seeded at a density of 1500 cells per well, using a Multidrop Combi liquid handler (Thermo Scientific, Waltham, MA, USA). Plates were incubated at 37 °C and 5% CO2 for 72 h in humidified trays to reduce edge effect. Following this incubation, paraformaldehyde (4% final concentration) in 1× phosphate buffered saline (PBS, Invitrogen, 10010023) was used to fix the cells for 1 h. The cells were then subsequently treated with 5 µg/mL DAPI staining solution (Sigma Aldrich, D9542) for 1 h. Next, the plates were imaged using an ImageXpress Micro XLS automated high-content imager (Molecular Devices, San Jose, CA, USA), using the 10× fluorescence objective. Images were analyzed automatically using a custom image analysis module [9, 11].
# Compounds from the ReFRAME library were pre-spotted on 1536 clear-bottom black well plates in 100% dimethylsulfoxide (DMSO) for a final concentration of 10 µM in 10 µL final volume (and 0.1% DMSO final concentration). C2C12 mouse myoblasts and CA-I/72 strain T. cruzi trypomastigotes were added to the plate in a 1:15 infection ratio and incubated for 72 h at 37 °C and 5% CO2. Cells were then fixed with 4% paraformaldehyde (final concentration), and stained with 5 µg/mL of 4’,6-diamidino-2-phenylindole (DAPI) to highlight the nuclei from the host cells and parasites. Using an ImageXpress Micro XLS automated microscope (10× magnification setting), fluorescence images of C2C12 and T. cruzi amastigote nuclei were acquired for each well, and the number of host cell nuclei and amastigote nuclei were automatically determined using a custom image analysis module as previously described [9, 10, 11] […] Parasite amastigote nuclei were selectively counted over trypomastigote nuclei, via distance gating of parasitic nuclei distance from host cell nuclei in the microscopy images.
# [1] = Host cell toxicity by nuclei counting in the phenotypic high-content imaging assay; settings: mouse
# Experimental: C2C12 mouse myoblasts (ATCC CRL-1772) and CA-I/72 T. cruzi (kindly donated by J. Dvorak, NIH) were cultured in Dulbecco’s Modified Eagle Medium (Invitrogen, Carlsbad, CA, USA), supplemented with 5% fetal bovine serum (Sigma Aldrich, St. Louis, MO, USA) and 1% penicillin-streptomycin (Invitrogen, Carlsbad, CA, USA) at 37 °C and 5% CO2 essentially as described. Passaging of CA-I/72 T. cruzi was conducted weekly via co-culture with C2C12 host cells.
# Compounds from the ReFRAME library, benznidazole (Sigma Alderich, St. Louis, MO, USA) and DMSO (Sigma Alderich, St. Louis, MO, USA), were transferred to black 1536-well plates (Greiner Bio One, Kremsmünster, Austria) with clear bottoms using an Acoustic Transfer System (ATS) instrument (EDC Biosystems, Fremont, CA, USA). C2C12 cells were seeded at a density of 100 cells per well, and CA-I/72 T. cruzi parasites were seeded at a density of 1500 cells per well, using a Multidrop Combi liquid handler (Thermo Scientific, Waltham, MA, USA). Plates were incubated at 37 °C and 5% CO2 for 72 h in humidified trays to reduce edge effect. Following this incubation, paraformaldehyde (4% final concentration) in 1× phosphate buffered saline (PBS, Invitrogen, 10010023) was used to fix the cells for 1 h. The cells were then subsequently treated with 5 µg/mL DAPI staining solution (Sigma Aldrich, D9542) for 1 h. Next, the plates were imaged using an ImageXpress Micro XLS automated high-content imager (Molecular Devices, San Jose, CA, USA), using the 10× fluorescence objective. Images were analyzed automatically using a custom image analysis module.
# Compounds from the ReFRAME library were pre-spotted on 1536 clear-bottom black well plates in 100% dimethylsulfoxide (DMSO) for a final concentration of 10 µM in 10 µL final volume (and 0.1% DMSO final concentration). C2C12 mouse myoblasts and CA-I/72 strain T. cruzi trypomastigotes were added to the plate in a 1:15 infection ratio and incubated for 72 h at 37 °C and 5% CO2. Cells were then fixed with 4% paraformaldehyde (final concentration), and stained with 5 µg/mL of 4’,6-diamidino-2-phenylindole (DAPI) to highlight the nuclei from the host cells and parasites. Using an ImageXpress Micro XLS automated microscope (10× magnification setting), fluorescence images of C2C12 and T. cruzi amastigote nuclei were acquired for each well, and the number of host cell nuclei and amastigote nuclei were automatically determined using a custom image analysis module as previously described (Figure 1). Parasite amastigote nuclei were selectively counted over trypomastigote nuclei, via distance gating of parasitic nuclei distance from host cell nuclei in the microscopy images.
# Infection levels were calculated as a ratio of the number of T. cruzi amastigotes per C2C12 host cell, as determined by nuclei counting. Compound toxicity was determined by dividing the number of host cell nuclei in a drug-treated well by the average of the vehicle controls. For both infection ratios and cell viability ratios, values were normalized to the vehicle controls to determine percent activity and toxicity, respectively. Control wells containing uninfected C2C12 cells, infected C2C12 cells with 0.1% DMSO, and infected C2C12 cells with 0.1% DMSO and 50 µM benznidazole were prepared in each plate for data normalization. […] Hit selection cutoffs for the primary screen were set at 70% antiparasitic activity (70% parasite reduction compared to untreated controls) and 50% host cell viability at 10 µM compound compared to untreated controls (represents approximately three standard deviations from the average of the untreated controls).
# [2] = intracellular amastigotes in C2C12, 72 h, 10-point 3-fold dose response in duplicate, +/- SE
# [3] = C2C12 mouse myoblasts co-cultured with CA-I/72 T. cruzi
structure (smiles),measurement,setting,value
COc1ccccc1N1CCN(CCCCn2c(=O)sc3cc(CCN4CCC(C(=O)c5ccc(F)cc5)CC4)ccc32)CC1 [3-[4-[4-(2-Methoxyphenyl)piperazine-1-yl]butyl]-6-[2-[4-(4-fluorobenzoyl)piperidine-1-yl]ethyl]benzothiazole-2(3H)-one],Selectivity Index (SI),CA-I/72 T. cruzi,145
same,EC50,CA-I/72 T. cruzi; [2],22 nM
same,CC50 at 72 h,[1]; [3],3190 nM
"C=C(NNC(=S)NNC(=S)Nc1ccccc1Cl)c1ccccn1 [348U87, 2-acetylpyridine 5-[(2-chloroanilino)-thiocarbonyl]-thiocarbonohydrazone]",Selectivity Index (SI),CA-I/72 T. cruzi,1294
same,EC50,CA-I/72 T. cruzi; [2],0.63 nM
same,CC50 at 72 h,[1]; [3],815 nM
"C=CC(=O)N1CC[C@@H](Oc2nc(Nc3ccc(N4CCC(N5CCN(C)CC5)CC4)cc3)c(C(N)=O)nc2CC)C1 [ASP-8273, naquotinib]",Selectivity Index (SI),CA-I/72 T. cruzi,191
same,EC50,CA-I/72 T. cruzi; [2],2.7 nM
same,CC50 at 72 h,[1]; [3],515 nM
"O=P(O)(O)C(NC1CCCCCC1)P(=O)(O)O [Incadronate Disodium, incadronate disodium]",Selectivity Index (SI),CA-I/72 T. cruzi,>20
same,EC50,CA-I/72 T. cruzi; [2],480 nM
same,CC50 at 72 h,[1],> 10000 nM
COc1cc2c3c(n(CCCNCCO)c(=O)c2cc1OC)-c1cc2c(cc1C3=O)OCO2 [NSC-706744],Selectivity Index (SI),CA-I/72 T. cruzi,214
same,EC50,"CA-I/72 T. cruzi; C2C12, 72 h",0.44 nM
same,CC50 at 72 h,[1],94 nM
N#Cc1ccc(Cn2cncc2CN2CCN(c3cccc(Cl)c3)C(=O)C2)cc1Oc1ccccc1 [Prenyl-IN-1],Selectivity Index (SI),CA-I/72 T. cruzi,10
same,EC50,CA-I/72 T. cruzi; [2],18 nM
same,CC50 at 72 h,[1]; [3],182 nM
Cc1cccc2nc3cccc(C(=O)NCCNCCNCCNC(=O)c4cccc5nc6cccc(C)c6nc45)c3nc12 [XR 5944],Selectivity Index (SI),CA-I/72 T. cruzi,13
same,EC50,CA-I/72 T. cruzi; [2],3.5 nM
same,CC50 at 72 h,[1]; [3],46 nM
